# Earlier results, collected in US12029733B2, “Treatment of sepsis and related inflammatory conditions by local neuromodulation of the autonomic nervous system” (Tulavi Therapeutics, Inc., priority 2016, dated 2024).
# Legend:
# GPR120 = molecular target: T1, GPR120 (Homo sapiens, UniProt Q5NUL3); details: fluorescent indicator measurement of Ca2+ mobilization
# T1 sequence (Q5NUL3 1-361): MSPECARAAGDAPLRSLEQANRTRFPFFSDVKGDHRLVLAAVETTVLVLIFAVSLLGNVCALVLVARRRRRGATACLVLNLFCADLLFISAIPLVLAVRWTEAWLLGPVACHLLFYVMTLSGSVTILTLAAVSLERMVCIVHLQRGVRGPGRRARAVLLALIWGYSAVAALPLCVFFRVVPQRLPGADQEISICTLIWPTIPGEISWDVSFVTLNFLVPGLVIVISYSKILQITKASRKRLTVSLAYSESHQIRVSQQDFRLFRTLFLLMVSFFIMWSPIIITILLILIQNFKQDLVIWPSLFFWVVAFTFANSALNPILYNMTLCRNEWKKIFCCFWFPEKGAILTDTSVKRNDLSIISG
# FFA1 = FFA1 (Homo sapiens, UniProt O14842); details: marked *: FFA1 ERK activation (Smith et al. 2009) / aequorin reporter Ca2+ signaling (Kotarsky et al. 2003)
# KCC2 = molecular target: T2, KCC2 (Homo sapiens, UniProt Q9H2X9)
# T2 sequence (Q9H2X9 1-1139): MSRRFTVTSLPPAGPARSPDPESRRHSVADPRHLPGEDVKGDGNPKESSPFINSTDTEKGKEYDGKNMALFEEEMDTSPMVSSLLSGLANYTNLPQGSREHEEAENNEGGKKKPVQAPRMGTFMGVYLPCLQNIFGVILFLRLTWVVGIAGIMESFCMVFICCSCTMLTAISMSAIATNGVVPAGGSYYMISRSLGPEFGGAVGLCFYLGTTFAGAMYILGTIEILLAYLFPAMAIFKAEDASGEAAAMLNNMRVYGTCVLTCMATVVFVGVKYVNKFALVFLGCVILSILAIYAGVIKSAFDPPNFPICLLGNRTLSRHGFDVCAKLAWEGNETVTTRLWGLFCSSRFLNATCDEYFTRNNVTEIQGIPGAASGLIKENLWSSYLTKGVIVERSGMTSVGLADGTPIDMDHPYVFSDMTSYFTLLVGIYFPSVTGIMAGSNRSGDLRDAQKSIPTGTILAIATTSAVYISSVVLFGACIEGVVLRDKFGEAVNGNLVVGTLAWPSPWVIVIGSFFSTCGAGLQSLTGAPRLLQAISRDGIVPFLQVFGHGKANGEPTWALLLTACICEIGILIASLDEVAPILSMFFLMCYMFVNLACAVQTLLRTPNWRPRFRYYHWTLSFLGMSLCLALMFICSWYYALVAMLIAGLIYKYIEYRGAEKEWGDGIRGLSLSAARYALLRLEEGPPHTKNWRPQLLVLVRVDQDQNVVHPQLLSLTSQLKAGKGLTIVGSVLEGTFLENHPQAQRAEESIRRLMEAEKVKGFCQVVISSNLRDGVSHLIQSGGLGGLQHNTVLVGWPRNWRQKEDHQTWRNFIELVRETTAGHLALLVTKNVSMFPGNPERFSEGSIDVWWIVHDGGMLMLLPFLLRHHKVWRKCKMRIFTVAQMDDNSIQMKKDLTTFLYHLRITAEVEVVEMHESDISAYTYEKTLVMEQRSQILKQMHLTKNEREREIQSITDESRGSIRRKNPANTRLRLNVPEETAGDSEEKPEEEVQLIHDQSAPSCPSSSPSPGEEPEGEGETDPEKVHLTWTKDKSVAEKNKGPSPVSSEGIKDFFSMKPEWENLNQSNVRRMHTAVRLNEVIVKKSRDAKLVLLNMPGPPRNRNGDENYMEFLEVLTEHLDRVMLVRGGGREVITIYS
# [1] = in vivo
# FFA1, sequence (O14842 whole entry): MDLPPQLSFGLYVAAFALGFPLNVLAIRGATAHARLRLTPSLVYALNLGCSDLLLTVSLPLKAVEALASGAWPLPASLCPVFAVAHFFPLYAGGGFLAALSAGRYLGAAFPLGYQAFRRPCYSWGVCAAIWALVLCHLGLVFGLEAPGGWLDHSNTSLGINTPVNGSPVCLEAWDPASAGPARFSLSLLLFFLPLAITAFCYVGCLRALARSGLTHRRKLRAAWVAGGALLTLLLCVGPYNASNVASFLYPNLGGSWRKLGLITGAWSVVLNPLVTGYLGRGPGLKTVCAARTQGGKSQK
Structure (SMILES),GPR120 pEC50 (GPR120),FFA1 pEC50 (FFA1),other results
"CCCCCCCCCCCCCCCC(=O)O [Palmitic Acid (C16:0), Palmitic Acid]",4.3,,
CN(CCOc1ccc(CC2SC(=O)NC2=O)cc1)c1ccccn1 (stereo not shown) [Rosiglitazone],,5.0-5.6*,
CC(C)(CCCCCCCCCCC(C)(C)CC(=O)O)CC(=O)O [MEDICA16],<5.0,5.5-5.9*,
"CCCCCCCC/C=C\CCCCCCCC(=O)O [Oleic acid (C18:l), Oleic acid]",4.5,,
Cc1csc(NC(=O)CSc2ccc(-c3ccccc3)nn2)n1 [VU0240551],,,selectivity KCC2 over NKCC1 (KCC2): selective for KCC2 over NKCC1
N=C(N)NC(=O)c1cnn(-c2cccc3ncccc23)c1C1CC1 [Zoniporide],,,neurotoxic effects [1]: causes peripheral sensory axonopathy
